The values below come from patent publication US11739070B2, “C5A receptor modulators” (IDORSIA PHARMACEUTICALS LTD, priority 2018, dated 2023).

Structures are written as SMILES.

The assay concerns the target T1, C5AR1 (Homo sapiens, UniProt P21730).
T1 construct: host or cells: CHO-K1
T1 sequence (P21730 1-350): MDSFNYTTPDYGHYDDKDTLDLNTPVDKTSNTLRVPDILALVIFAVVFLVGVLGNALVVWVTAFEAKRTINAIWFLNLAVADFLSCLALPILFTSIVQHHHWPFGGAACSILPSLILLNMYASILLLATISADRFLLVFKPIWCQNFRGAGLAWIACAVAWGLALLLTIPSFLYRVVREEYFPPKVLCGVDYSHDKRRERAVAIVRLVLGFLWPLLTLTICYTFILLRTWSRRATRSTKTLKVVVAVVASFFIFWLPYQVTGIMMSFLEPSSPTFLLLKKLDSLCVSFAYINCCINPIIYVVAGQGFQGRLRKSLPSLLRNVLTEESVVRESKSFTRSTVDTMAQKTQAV
The experiment in a line: hC5a DISCO IC50 assay (PathHunter beta-arrestin, antagonist mode). The note with it: CHO-K1 C5AR1 beta-arrestin cell line; antagonist vs 1-10 nM C5a agonist; geometric mean values; read-out: C5aR IC50. Format: cell-based. The procedure, abridged:
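Antagonist added first, then 1-10 nM C5a agonist; cells incubated 1.5 h at 37 °C. Beta-arrestin signal developed with PathHunter detection reagent, 45 min at RT. IC50 in nmol/l from serial antagonist dilutions, reported as geometric mean of several measurements.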
Regarding `COc1cccc2c1n(Cc1ccccc1C(F)(F)F)c(=O)n2[C@@H]1CCN(c2c(F)cccc2C#N)C1` [Example 82, 3-Fluoro-2-{(R)-3-[4-methoxy-2-oxo-3-(2-trifluoromethyl-benzyl)-2,3-dihydro-benzoimidazol-1-yl]-pyrrolidin-1-yl}-benzonitrile], the IC50 was found to be 28 nM.

In the case of `COc1cccc2c1n(Cc1ccccc1C(F)(F)F)c(=O)n2C1CCCN(c2c(C)cccc2F)CC1` (centres unmarked) [Example 184, 1-[1-(2-Fluoro-6-methyl-phenyl)-azepan-4-yl]-4-methoxy-3-(2-trifluoromethyl-benzyl)-1,3-dihydro-benzoimidazol-2-one], the IC50 stood at 36 nM.

`COc1nccc2c1n(Cc1ccccc1C(F)(F)F)c(=O)n2[C@@H]1CCN(c2c(C)cccc2F)C1` [Example 50, 1-[(R)-1-(2-Fluoro-6-methyl-phenyl)-pyrrolidin-3-yl]-4-methoxy-3-(2-trifluoromethyl-benzyl)-1,3-dihydro-imidazo[4,5-c]pyridin-2-one]: the IC50 turned out to be 42 nM.

For `COc1cccc(C)c1N1CC[C@@H](n2c(=O)n(Cc3ccccc3C(F)(F)F)c3c(=O)[nH]ccc32)C1` [Example 94, 1-[(R)-1-(2-Methoxy-6-methyl-phenyl)-pyrrolidin-3-yl]-3-(2-trifluoromethyl-benzyl)-3,5-dihydro-1H-imidazo[4,5-c]pyridine-2,4-dione], the IC50 was 313 nM.

As for `COc1ncncc1Cn1c(=O)n([C@@H]2CCN(c3c(F)cccc3C#N)C2)c2cccc(OC)c21` [Example 114, 3-Fluoro-2-{(R)-3-[4-methoxy-3-(4-methoxy-pyrimidin-5-ylmethyl)-2-oxo-2,3-dihydro-benzoimidazol-1-yl]-pyrrolidin-1-yl}-benzonitrile], the IC50 amounted to 1540 nM.

As to `COc1cccc2c1n(Cc1ccccc1C(F)(F)F)c(=O)n2C1CCN(C(=O)OC(C)(C)C)CC1F` (centres unmarked) [Example 210, 3-Fluoro-4-[4-methoxy-2-oxo-3-(2-trifluoromethyl-benzyl)-2,3-dihydro-benzoimidazol-1-yl]-piperidine-1-carboxylic acid tert-butyl ester], the IC50 worked out at 2290 nM.

In the case of `Cc1cccc(C)c1N1CC[C@@H](n2c(=O)n(Cc3ccccc3C(F)(F)F)c3c(OCCO)nccc32)C1` [Example 119, 1-[(R)-1-(2,6-Dimethyl-phenyl)-pyrrolidin-3-yl]-4-(2-hydroxy-ethoxy)-3-(2-trifluoromethyl-benzyl)-1,3-dihydro-imidazo[4,5-c]pyridin-2-one], the IC50 stood at 12 nM.

Consider `COc1cccc2c1n(Cc1ccccc1C(F)(F)F)c(=O)n2C1CCN(c2ncccc2F)CC1` [Example 236, 1-(3′-Fluoro-3,4,5,6-tetrahydro-2H-[1,2′]bipyridinyl-4-yl)-4-methoxy-3-(2-trifluoromethyl-benzyl)-1,3-dihydro-benzoimidazol-2-one], for which the IC50 stood at 171 nM.

Take `COc1cccc2c1n(Cc1ccccc1C(F)(F)F)c(=O)n2[C@@H]1CCN(c2c(F)cccc2C(C)O)C1` (stereo partly drawn) [Example 89, 1-{(R)-1-[2-Fluoro-6-(1-hydroxy-ethyl)-phenyl]-pyrrolidin-3-yl}-4-methoxy-3-(2-trifluoromethyl-benzyl)-1,3-dihydro-benzoimidazol-2-one]: the IC50 worked out at 44 nM.

For the compound `COCCNC(=O)c1cccc2c1n(Cc1ccccc1C(F)(F)F)c(=O)n2[C@@H]1CCN(c2c(F)cccc2C#N)C1` [Example 194, 1-[(R)-1-(2-Cyano-6-fluoro-phenyl)-pyrrolidin-3-yl]-2-oxo-3-(2-trifluoromethyl-benzyl)-2,3-dihydro-1H-benzoimidazole-4-carboxylic acid (2-methoxy-ethyl)-amide], the IC50 was found to be 1480 nM.

`COc1cccc2c1n(Cc1ccccc1C(F)(F)F)c(=O)n2[C@@H]1CCN(c2cc(C)nn2C)C1` [Example 79, 1-[(R)-1-(2,5-Dimethyl-2H-pyrazol-3-yl)-pyrrolidin-3-yl]-4-methoxy-3-(2-trifluoromethyl-benzyl)-1,3-dihydro-benzoimidazol-2-one]: the concentration for half-maximal inhibition (IC50) is 911 nM.

Turning to `Cc1cccc(F)c1N1CC[C@@H](n2c(=O)n(Cc3ccccc3C(F)(F)F)c3c(OC4CCNCC4)nccc32)C1` [Example 124, 1-[(R)-1-(2-Fluoro-6-methyl-phenyl)-pyrrolidin-3-yl]-4-(piperidin-4-yloxy)-3-(2-trifluoromethyl-benzyl)-1,3-dihydro-imidazo[4,5-c]pyridin-2-one], the 50% inhibitory concentration (IC50) is 5220 nM.

In the case of `COc1cccc2c1n(Cc1ccccc1C(F)(F)F)c(=O)n2C1CCN(c2ccccc2)CC1` [Example 4, 4-Methoxy-1-(1-phenyl-piperidin-4-yl)-3-(2-trifluoromethyl-benzyl)-1,3-dihydro-benzoimidazol-2-one], the IC50 stood at 131 nM.

Turning to `COc1cccc2c1n(Cc1ccccc1C(F)(F)F)c(=O)n2C1CCN(C(=O)OC(C)(C)C)CC1` [Example 1, 4-[4-Methoxy-2-oxo-3-(2-trifluoromethyl-benzyl)-2,3-dihydro-benzoimidazol-1-yl]-piperidine-1-carboxylic acid tert-butyl ester], the IC50 came to 621 nM.

On to `COc1ccnnc1Cn1c(=O)n([C@@H]2CCN(c3c(C)cccc3F)C2)c2cccc(OC)c21` [Example 95, 1-[(R)-1-(2-Fluoro-6-methyl-phenyl)-pyrrolidin-3-yl]-4-methoxy-3-(4-methoxy-pyridazin-3-ylmethyl)-1,3-dihydro-benzoimidazol-2-one], for which the IC50 was 191 nM.

Regarding `COc1cccc2c1n(Cc1ccccc1C(F)(F)F)c(=O)n2[C@@H]1CCN(c2c(F)cccc2C#CCN2CCOCC2)C1` [Example 159, 1-{(R)-1-[2-Fluoro-6-(3-morpholin-4-yl-prop-1-ynyl)-phenyl]-pyrrolidin-3-yl}-4-methoxy-3-(2-trifluoromethyl-benzyl)-1,3-dihydro-benzoimidazol-2-one], the IC50 came to 73 nM.

In the case of `COc1cccc2c1n(Cc1ccccc1C(F)(F)F)c(=O)n2[C@H]1CN(c2c(C)cccc2F)C[C@H]1C` (relative stereo) [Example 200, 1-[(3R*,4R*)-1-(2-Fluoro-6-methyl-phenyl)-4-methyl-pyrrolidin-3-yl]-4-methoxy-3-(2-trifluoromethyl-benzyl)-1,3-dihydro-benzoimidazol-2-one], the 50% inhibitory concentration (IC50) stood at 19 nM.

In the case of `COc1cccc2c1n(Cc1ccccc1C(F)(F)F)c(=O)n2[C@@H]1CCN(c2c(F)cccc2C(C)OC)C1` (stereo partly drawn) [Example 148, 1-{(R)-1-[2-Fluoro-6-(1-methoxy-ethyl)-phenyl]-pyrrolidin-3-yl}-4-methoxy-3-(2-trifluoromethyl-benzyl)-1,3-dihydro-benzoimidazol-2-one], the IC50 amounted to 28 nM.

In the case of `COc1cccc2c1n(Cc1ccccc1C(F)(F)F)c(=O)n2C1CCN(c2ccccc2OCCO)CC1` [Example 238, 1-{1-[2-(2-Hydroxy-ethoxy)-phenyl]-piperidin-4-yl}-4-methoxy-3-(2-trifluoromethyl-benzyl)-1,3-dihydro-benzoimidazol-2-one], the IC50 was determined as 133 nM.

With `N#Cc1cccc(F)c1N1CC[C@@H](n2c(=O)n(Cc3ccccc3C(F)(F)F)c3c(C(=O)NCCO)cccc32)C1` [Example 193, 1-[(R)-1-(2-Cyano-6-fluoro-phenyl)-pyrrolidin-3-yl]-2-oxo-3-(2-trifluoromethyl-benzyl)-2,3-dihydro-1H-benzoimidazole-4-carboxylic acid (2-hydroxy-ethyl)-amide], the IC50 is 632 nM.

Take `COc1nccc2c1n(Cc1ccccc1C(F)(F)F)c(=O)n2[C@@H]1CCN(c2c(C)cccc2C)C1` [Example 41, 1-[(R)-1-(2,6-Dimethyl-phenyl)-pyrrolidin-3-yl]-4-methoxy-3-(2-trifluoromethyl-benzyl)-1,3-dihydro-imidazo[4,5-c]pyridin-2-one]: the IC50 is 18 nM.

`COc1cccc2c1n(Cc1cccnc1C(F)(F)F)c(=O)n2C1CCN(c2c(F)cccc2F)CC1` [Example 55, 1-[1-(2,6-Difluoro-phenyl)-piperidin-4-yl]-4-methoxy-3-(2-trifluoromethyl-pyridin-3-ylmethyl)-1,3-dihydro-benzoimidazol-2-one]: the IC50 is 178 nM.

Consider `COc1ccccc1N1CC[C@@H](n2c(=O)n(Cc3ccccc3C(F)(F)F)c3c(OC)cccc32)C1` [Example 16, 4-Methoxy-1-[(R)-1-(2-methoxy-phenyl)-pyrrolidin-3-yl]-3-(2-trifluoromethyl-benzyl)-1,3-dihydro-benzoimidazol-2-one], for which the IC50 is 19 nM.

Turning to `COc1cccc2c1n(Cc1ccccc1C(F)(F)F)c(=O)n2[C@@H]1CCN(c2c(Cl)c(C)nn2C)C1` [Example 80, 1-[(R)-1-(4-Chloro-2,5-dimethyl-2H-pyrazol-3-yl)-pyrrolidin-3-yl]-4-methoxy-3-(2-trifluoromethyl-benzyl)-1,3-dihydro-benzoimidazol-2-one], the IC50 was determined as 157 nM.

With `Cc1cccc(F)c1N1CC[C@@H](n2c(=O)n(Cc3ccccc3C(F)(F)F)c3c(N4CCOCC4)nccc32)C1` [Example 129, 1-[(R)-1-(2-Fluoro-6-methyl-phenyl)-pyrrolidin-3-yl]-4-morpholin-4-yl-3-(2-trifluoromethyl-benzyl)-1,3-dihydro-imidazo[4,5-c]pyridin-2-one], the IC50 turned out to be 53 nM.

As to `COc1cccc2c1n(Cc1ccccc1C(F)(F)F)c(=O)n2[C@@H]1CCN(C(=O)OC2COC2)C1` [Example 72, (R)-3-[4-Methoxy-2-oxo-3-(2-trifluoromethyl-benzyl)-2,3-dihydro-benzoimidazol-1-yl]-pyrrolidine-1-carboxylic acid oxetan-3-yl ester], the IC50 worked out at 397 nM.
